# Values of other authors in patent US20200236925A1, “METHODS AND FORMULATIONS FOR PREVENTING DOWNWARD MIGRATION OF AGRICULTURAL MATERIALS” (BAYER CROPSCIENCE LP, priority 2019, published 2020).
# Experiments:
# hybrid bermudagrass [1] = details: application rate increased from 35 to 53 g ha-1; SOC ≤0.3% w w-1
# hybrid bermudagrass [2] = details: 35 or 52 g ha-1, fall or spring treatments
smiles,measurement,setting,value
"Cc1ccc2c(c1)[C@H](Nc1nc(N)nc(C(C)F)n1)[C@@H](C)C2 (mixture of isomers) [indaziflam, N2-[(1R,2S)-2,3-dihydro-2,6-dimethyl-1H-inden-1-yl]-6-[(1RS)-1-fluoroethyl]-1,3,5-triazine-2,4-diamine]",solubility in distilled water,distilled water,2.8 µg/mL
same,field-T1/2,field persistence,> 150 days
same,aqueous solubility (Ks),pH 7,2.4 µg/mL
same,increase of hybrid bermudagrass injury,hybrid bermudagrass [1],> 10 fold
same,hybrid bermudagrass root strength vs nontreated,hybrid bermudagrass [2],no differences in hybrid bermudagrass root strength
